Measurements reported in patent US4055715A, “Method of producing 1-N-[L-(-)-α-hydroxy-γ-aminobutyryl]XK-62-2” (Abbott Laboratories, priority 1974, dated 1977).
Values after ≈ are worked out from the molar mass of the structure shown. Like-named read-outs stand apart in the source and are kept apart here.

Key:
[1] = system: Escherichia coli ATCC 26; experiment: Agar-dilution MIC, pH 8.0 (Table 1); type: cell-based
[2] = system: Pseudomonas aeruginosa BMH 1; experiment: Agar-dilution MIC, pH 8.0 (Table 1); type: cell-based
[3] = system: Escherichia coli KY 8348; experiment: Agar-dilution MIC, pH 8.0 (Table 1); type: cell-based; settings: Escherichia coli, KY8348; E. coli KY 8348, produces gentamicin acetyltransferase Type I; agar-dilution, pH 8.0; read-out: Minimum Inhibitory Concentration
Text: (§1) The former bacterium inactivates kanamycins and gentamicins by adenylation, and the latter inactivates gentamicins by acetylation.

[4] = system: Escherichia coli KY 8327; experiment: Agar-dilution MIC, pH 8.0 (Table 1); type: cell-based; settings: Escherichia coli, KY8327; E. coli KY 8327, produces gentamicin adenyltransferase; agar-dilution, pH 8.0; read-out: Minimum Inhibitory Concentration
Text: as §1

[5] = system: Pseudomonas aeruginosa BMH 1; experiment: Agar dilution MIC, pH 7.2 (Table 2); type: cell-based
[6] = system: Salmonella typhosa ATCC 9992; experiment: Agar-dilution MIC, pH 8.0 (Table 1); type: cell-based; settings: Salmonella enterica, pH 8, read-out: Minimum Inhibitory Concentration
[7] = system: Providencia sp. 164; experiment: Agar dilution MIC, pH 7.2 (Table 2); type: cell-based; settings: Providencia sp. 164, produces gentamicin acetyltransferase Type II, read-out: Minimum Inhibitory Concentration
[8] = system: Staphylococcus aureus ATCC 6538P; experiment: Agar-dilution MIC, pH 8.0 (Table 1); type: cell-based; settings: ATCC6538P
[9] = system: Krebsiella pneumoniae ATCC 10031; experiment: Agar-dilution MIC, pH 8.0 (Table 1); type: cell-based; settings: Klebsiella pneumoniae
[10] = system: Bacillus subtilis ATCC 6633; experiment: Agar dilution MIC, pH 7.2 (Table 2); type: cell-based
[11] = system: Escherichia coli KY 8349; experiment: Agar dilution MIC, pH 7.2 (Table 2); type: cell-based; settings: KY8349, E. coli KY 8349, produces neomycin-kanamycin phosphotransferase Type I, read-out: Minimum Inhibitory Concentration
[12] = system: Staphylococcus aureus Smith; experiment: Agar dilution MIC, pH 7.2 (Table 2); type: cell-based; settings: pH 7.2, read-out: Minimum Inhibitory Concentration
[13] = system: Pseudomonas aeruginosa KY 8510; experiment: Agar dilution MIC, pH 7.2 (Table 2); type: cell-based
[14] = system: Escherichia coli KY 8327; experiment: Agar dilution MIC, pH 7.2 (Table 2); type: cell-based; settings: KY8327, E. coli KY 8327, read-out: Minimum Inhibitory Concentration
[15] = system: Escherichia coli T-2; experiment: Agar dilution MIC, pH 7.2 (Table 2); type: cell-based
[16] = system: Klebsiella pneumoniae No. 8045; experiment: Agar dilution MIC, pH 7.2 (Table 2); type: cell-based
[17] = system: Proteus mirabilis 1287; experiment: Agar dilution MIC, pH 7.2 (Table 2); type: cell-based
[18] = system: Escherichia coli T-5; experiment: Agar dilution MIC, pH 7.2 (Table 2); type: cell-based
[19] = system: Shigella sonnei ATCC 9290; experiment: microbe, parasite or virus in culture; type: cell-based
[20] = system: Pseudomonas aeruginosa KY 8516; experiment: Agar dilution MIC, pH 7.2 (Table 2); type: cell-based
[21] = system: Proteus morganii KY 4298; experiment: Agar dilution MIC, pH 7.2 (Table 2); type: cell-based; settings: Morganella morganii
[22] = system: Pseudomonas aeruginosa KY 8512; experiment: Agar dilution MIC, pH 7.2 (Table 2); type: cell-based
[23] = system: Sarcina lutea ATCC 9341; experiment: Agar dilution MIC, pH 7.2 (Table 2); type: cell-based; settings: Micrococcus luteus
[24] = system: Proteus vulgaris ATCC 6897; experiment: microbe, parasite or virus in culture; type: cell-based
[25] = system: Staphylococcus aureus 209 P; experiment: Agar dilution MIC, pH 7.2 (Table 2); type: cell-based; settings: pH 7.2, read-out: Minimum Inhibitory Concentration
[26] = system: Bacillus subtilis No. 10707; experiment: Agar-dilution MIC, pH 8.0 (Table 1); type: cell-based
[27] = system: Escherichia coli KY 8321; experiment: Agar dilution MIC, pH 7.2 (Table 2); type: cell-based
[28] = system: Pseudomonas aeruginosa KY 8511; experiment: Agar dilution MIC, pH 7.2 (Table 2); type: cell-based
[29] = system: Proteus vulgaris 6897; experiment: Agar dilution MIC, pH 7.2 (Table 2); type: cell-based
[30] = Acute toxicity in mice, intravenous injection; settings: mouse, in vivo
[31] = system: Proteus rettgeri KY 4288; experiment: Agar dilution MIC, pH 7.2 (Table 2); type: cell-based; settings: Providencia rettgeri, KY4288, P. rettgeri KY 4288, read-out: Minimum Inhibitory Concentration
[32] = system: Escherichia coli KY 8348; experiment: Agar dilution MIC, pH 7.2 (Table 2); type: cell-based; settings: KY8348, E. coli KY 8348, produces gentamicin acetyltransferase Type I, read-out: Minimum Inhibitory Concentration

In the case of `NC[C@H]1O[C@H](O[C@H]2[C@H](O)[C@@H](O[C@H]3O[C@H](CO)[C@@H](O)[C@H](N)[C@H]3O)[C@H](N)C[C@@H]2N)[C@H](O)[C@@H](O)[C@@H]1O` [Kanamycin A, kanamycin A], the MIC ([1]; ATCC26, pH 8, read-out: Minimum Inhibitory Concentration) is reported as 0.16 µg/mL (≈ 0.33 µM), the MIC ([2]; BMH1, pH 8, read-out: Minimum Inhibitory Concentration) is reported as 5.2 µg/mL (≈ 10.7 µM) and the MIC [3] is reported as 0.041 µg/mL (≈ 0.0846 µM). It also gave an MIC [4] of 1.04 µg/mL (≈ 2.15 µM), an MIC ([5]; BMH1, pH 7.2, read-out: Minimum Inhibitory Concentration) of 12.5 µg/mL (≈ 25.8 µM) and an MIC [6] of 0.088 µg/mL (≈ 0.182 µM). It also gave an MIC [7] greater than 100 µg/mL, an MIC ([8]; pH 8, read-out: Minimum Inhibitory Concentration) of 0.021 µg/mL (≈ 0.0433 µM) and an MIC ([9]; ATCC10031, pH 8, read-out: Minimum Inhibitory Concentration) of 0.042 µg/mL (≈ 0.0867 µM). It also gave an MIC ([10]; ATCC6633, pH 7.2, read-out: Minimum Inhibitory Concentration) of 0.2 µg/mL (≈ 0.413 µM), an MIC [11] greater than 100 µg/mL and an MIC [12] of 0.2 µg/mL (≈ 0.413 µM). It also gave an MIC ([13]; KY8510, pH 7.2, read-out: Minimum Inhibitory Concentration) of 100 µg/mL (≈ 206 µM), an MIC [14] of 50 µg/mL (≈ 103 µM) and an MIC ([15]; T2, pH 7.2, read-out: Minimum Inhibitory Concentration) of 1.56 µg/mL (≈ 3.22 µM). For the same molecule, the MIC ([16]; NO.8045, pH 7.2, read-out: Minimum Inhibitory Concentration) was 0.4 µg/mL (≈ 0.826 µM), the MIC ([17]; Proteus mirabilis, 1287, pH 7.2, read-out: Minimum Inhibitory Concentration) was 6.25 µg/mL (≈ 12.9 µM) and the MIC ([18]; T5, pH 7.2, read-out: Minimum Inhibitory Concentration) was 1.56 µg/mL (≈ 3.22 µM). For the same molecule, the MIC ([19]; ATCC9290, pH 8, read-out: Minimum Inhibitory Concentration) was 0.16 µg/mL (≈ 0.33 µM), the MIC ([20]; KY8516, pH 7.2, read-out: Minimum Inhibitory Concentration) was greater than 100 µg/mL and the MIC ([21]; KY4298, pH 7.2, read-out: Minimum Inhibitory Concentration) was 1.56 µg/mL (≈ 3.22 µM). The MIC ([22]; KY8512, pH 7.2, read-out: Minimum Inhibitory Concentration) was 12.5 µg/mL (≈ 25.8 µM), the MIC ([23]; ATCC9341, pH 7.2, read-out: Minimum Inhibitory Concentration) was 6.25 µg/mL (≈ 12.9 µM) and the MIC ([24]; ATCC6897, pH 8, read-out: Minimum Inhibitory Concentration) was 0.16 µg/mL (≈ 0.33 µM). For the same molecule, the MIC ([25]; 209P) was 0.2 µg/mL (≈ 0.413 µM), the MIC ([26]; NO.10707, pH 8, read-out: Minimum Inhibitory Concentration) was 0.021 µg/mL (≈ 0.0433 µM) and the MIC ([27]; KY8321, pH 7.2, read-out: Minimum Inhibitory Concentration) was 100 µg/mL (≈ 206 µM). It also gave an MIC ([28]; KY8511, pH 7.2, read-out: Minimum Inhibitory Concentration) of 100 µg/mL (≈ 206 µM) and an MIC ([29]; Proteus vulgaris, 6897, pH 7.2, read-out: Minimum Inhibitory Concentration) of 3.12 µg/mL (≈ 6.44 µM).

Work on `CNC[C@@H]1CC[C@@H](N)[C@@H](O[C@H]2[C@H](O)[C@@H](O[C@H]3OC[C@](C)(O)[C@H](NC)[C@H]3O)[C@H](N)C[C@@H]2N)O1` [XK-62-2] yielded an MIC ([1]; ATCC26, E. coli ATCC 26, agar-dilution, pH 8.0, read-out: Minimum Inhibitory Concentration) of 0.016 µg/mL (≈ 0.0345 µM), an MIC ([2]; BMH1, P. aeruginosa BMH 1, agar-dilution, pH 8.0, read-out: Minimum Inhibitory Concentration) of 0.52 µg/mL (≈ 1.12 µM) and an MIC [3] of 1.04 µg/mL (≈ 2.24 µM). The MIC [4] was 1.04 µg/mL (≈ 2.24 µM), the MIC ([5]; BMH1, P. aeruginosa BMH 1, agar dilution, pH 7.2, read-out: Minimum Inhibitory Concentration) was 0.78 µg/mL (≈ 1.68 µM) and the MIC [6] was 0.008 µg/mL (≈ 0.0173 µM). It also gave an MIC [7] of 100 µg/mL (≈ 216 µM), an MIC ([8]; S. aureus ATCC 6538P, agar-dilution, pH 8.0, read-out: Minimum Inhibitory Concentration) of 0.088 µg/mL (≈ 0.19 µM) and an MIC ([9]; ATCC10031, K. pneumoniae ATCC 10031, agar-dilution, pH 8.0, read-out: Minimum Inhibitory Concentration) of 0.004 µg/mL (≈ 0.00863 µM). It also gave an MIC ([10]; ATCC6633, B. subtilis ATCC 6633, agar dilution, pH 7.2, read-out: Minimum Inhibitory Concentration) of less than 0.05 µg/mL, an MIC [11] of 0.4 µg/mL (≈ 0.863 µM) and an MIC ([12]; S. aureus Smith, agar dilution) of less than 0.05 µg/mL. The MIC ([13]; KY8510, P. aeruginosa KY 8510, produces kanamycin acetyltransferase, agar dilution, pH 7.2, read-out: Minimum Inhibitory Concentration) was 1.56 µg/mL (≈ 3.37 µM), the MIC [14] was 12.5 µg/mL (≈ 27 µM) and the MIC ([15]; T2, E. coli T-2, agar dilution, pH 7.2, read-out: Minimum Inhibitory Concentration) was 0.4 µg/mL (≈ 0.863 µM). For the same molecule, the MIC ([16]; K. pneumoniae No. 8045, agar dilution, pH 7.2, read-out: Minimum Inhibitory Concentration) was 0.1 µg/mL (≈ 0.216 µM), the MIC ([17]; Proteus mirabilis, P. mirabilis 1287, agar dilution, pH 7.2, read-out: Minimum Inhibitory Concentration) was 0.78 µg/mL (≈ 1.68 µM) and the LD50 [30] was 93 mg/kg. For the same molecule, the MIC ([18]; T5, E. coli T-5, agar dilution, pH 7.2, read-out: Minimum Inhibitory Concentration) was 0.4 µg/mL (≈ 0.863 µM), the MIC ([19]; ATCC9290, S. sonnei ATCC 9290, agar-dilution, pH 8.0, read-out: Minimum Inhibitory Concentration) was 0.033 µg/mL (≈ 0.0712 µM) and the MIC ([20]; KY8516, P. aeruginosa KY 8516, probably produces kanamycin acetyltransferase, agar dilution, pH 7.2, read-out: Minimum Inhibitory Concentration) was 3.12 µg/mL (≈ 6.73 µM). For the same molecule, the MIC ([21]; KY4298, P. morganii KY 4298, agar dilution, pH 7.2, read-out: Minimum Inhibitory Concentration) was 0.4 µg/mL (≈ 0.863 µM), the MIC ([22]; KY8512, P. aeruginosa KY 8512, produces neomycin-kanamycin phosphotransferase Type I and II and streptomycin phosphotransferase, agar dilution, pH 7.2, read-out: Minimum Inhibitory Concentration) was 0.78 µg/mL (≈ 1.68 µM) and the MIC ([23]; ATCC9341, Sarcina lutea ATCC 9341, agar dilution, pH 7.2, read-out: Minimum Inhibitory Concentration) was 0.4 µg/mL (≈ 0.863 µM). For the same molecule, the MIC ([24]; ATCC6897, P. vulgaris ATCC 6897, agar-dilution, pH 8.0, read-out: Minimum Inhibitory Concentration) was 0.033 µg/mL (≈ 0.0712 µM), the MIC ([25]; S. aureus 209 P, agar dilution) was 0.1 µg/mL (≈ 0.216 µM) and the MIC ([26]; B. subtilis No. 10707, agar-dilution, pH 8.0, read-out: Minimum Inhibitory Concentration) was 0.044 µg/mL (≈ 0.0949 µM). It also gave an MIC ([27]; KY8321, E. coli KY 8321, produces gentamicin adenyltransferase and neomycin-kanamycin phosphotransferase Type II, agar dilution, pH 7.2, read-out: Minimum Inhibitory Concentration) of 3.12 µg/mL (≈ 6.73 µM), an MIC [31] of 0.4 µg/mL (≈ 0.863 µM) and an MIC [32] of 12.5 µg/mL (≈ 27 µM). The MIC ([28]; KY8511, P. aeruginosa KY 8511, produces gentamicin acetyltransferase Type I and neomycin-kanamycin phosphotransferase Type I, agar dilution, pH 7.2, read-out: Minimum Inhibitory Concentration) was 100 µg/mL (≈ 216 µM) and the MIC ([29]; Proteus vulgaris, P. vulgaris 6897, agar dilution, pH 7.2, read-out: Minimum Inhibitory Concentration) was 0.78 µg/mL (≈ 1.68 µM).
